The source of these data is publication PMC6161288, “Bioavailability of Eurycomanone in Its Pure Form and in a Standardised Eurycoma longifolia Water Extract” (Pharmaceutics, 2018).

Series [1] is described as follows: Plasma protein binding (rapid equilibrium dialysis), mice. Format: in vitro ADME. The conditions noted are these: mouse, pH 7.4, 37 °C, read-out: percentage bound to plasma protein (converted). As to the method: (§1) The ability of eurycomanone to bind plasma protein was analysed in five types of plasma (mice, rat, dog, monkey, and human). Each type of plasma was spiked with eurycomanone (1 mM) to make the 10 µM test concentration of eurycomanone in the plasma. Equilibrium dialysis buffer (500 µL) at pH 7.4 was added to the right chamber in rapid equilibrium dialysis (RED), while the spiked plasma (300 µL) was added to the left chamber. The Teflon base plate was covered with aluminium foil and left on the shaking incubator at 37 °C for 4 h. The matrix was balanced by mixing 100 µL of the equilibrium buffer with the spiked plasma from the left chamber in RED before adding the stop solution (350 µL) to precipitate out the protein. The supernatant (10,000 rpm, 10 min, 4 °C) was collected and analysed using LC-MS/MS. The standards (propranolol, warfarin, and acebutalol) were analysed in duplicates.
On the technique in general: In equilibrium dialysis only unbound substance equilibrates across the membrane.

The nature of series [2]: Parallel artificial membrane permeability assay (PAMPA). It is filed as in vitro ADME. The conditions noted are these: pH 7.4, 18 h, room temperature, read-out: permeation through artificial membrane (PAMPA). As to the method: Eurycomanone was added to Pion buffer (Pion Inc., Billerica, MA, USA) pH 7.4 to make a 10 µM working solution. Five microlitres of the lipid mix was applied on the membrane and allowed to dry for 10 min. The working solution (200 µL) was added to the donor plate and Pion buffer (200 µL) were added to the receiver plate. The plate was kept in a moist chamber and left for 18 h at room temperature. The solution from both the donor and receiver plate and the working solution was analysed using LC-MS/MS. This test was carried out in triplicates using propranolol, atenolol, and carbamazepine as standards. The test concentration for eurycomanone is […].
For orientation: PAMPA measures passive passage across an artificial lipid membrane.

A further series in a line: Plasma stability, mice. It is filed as in vitro ADME. The conditions noted are these: 5 µM, 37 °C, up to 4 h, compared with human, rat and dog plasma. As to the method: (§2) The plasma stability was estimated by preparing 5 µM of eurycomanone in 600 µL plasma in triplicates. The plasma stability of eurycomanone was determined in five types of plasma (mice, rat, dog, monkey, and human). The reaction was kept at 37 °C and ACN (100 µL) was added at timepoints 0, 30 min, and 1, 2, and 4 h to the reaction mixture (100 µL). The supernatant (10,000 rpm, 10 min, 4 °C) was collected and analysed by LC-MS/MS. The standards (propantheline bromide and enalapril) were analysed in triplicates.

Series [3] is described as follows: Rat liver hepatocyte stability. Conditions: rat liver hepatocytes. It is filed as in vitro ADME.
A short description of another series: Plasma stability, monkey. Conditions: 5 µM, 37 °C, up to 4 h, compared with human, rat and dog plasma. It is filed as in vitro ADME. As to the method:
as §2

Series [4] deals with HepG2 cell-induced tumours. Set-up: method as in earlier work. Conditions: 17 mg/kg orally, nude mice with HepG2 cell-induced tumours; cited from earlier work.
Series [5] in a line: Lipophilicity, shake flask method with octanol and buffer (pH 7.4). It is filed as physicochemical. Conditions: pH 7.4, octanol/buffer shake flask; read-out: distribution coefficient log D. As to the method:
The lipophilicity of eurycomanone was estimated using the shake flask method with octanol and buffer (pH 7.4). Eurycomanone (5 µL) at 5 mM concentration is added to octanol (495 µL) and DMSO (495 µL) and also into the aqueous and octanol phase in a 1:1 ratio ([…] of octanol phase and 247.5 µL of aqueous phase). The octanol and aqueous phases were prepared using a saturation process, where equal amounts of D-PBS (pH 7.4) and octanol were saturated (300 rpm, room temperature) for 24 h before being separated and kept at room temperature. The prepared mixtures were vortexed and kept on the shaker (300 rpm) at room temperature for 16 h. The mixtures were allowed to stand for 30 min, and 200 µL of solution was transferred and sent for HPLC analysis.

The nature of the next series: Plasma stability, human. It is filed as in vitro ADME. Conditions: 5 µM, 37 °C, up to 4 h. On the procedure: as §2
Series [6] can be described thus: Plasma protein binding (rapid equilibrium dialysis), monkey. It is filed as in vitro ADME. The conditions noted are these: pH 7.4, 37 °C, read-out: percentage bound to plasma protein (converted). On the procedure: as §1
The nature of a further series: Aqueous solubility. Format: physicochemical. Conditions: aqueous buffer, kinetic from dmso stock, room temperature, 2% DMSO. As to the method:
The aqueous […] was estimated by adding 10 µL of eurycomanone stock solution (10 mM) to 490 µL of aqueous buffer at pH 5.4, pH 7.4 and DMSO in triplicates in deep-well plates. […] The plate was kept on a shaker (300 rpm) at room temperature for 16 h. The plate was then centrifuged at 25 °C, 4000 rpm for 25 min. The supernatant was transferred and analysed using LC-MS/MS.
Peak area 1 = peak area of the compound in 2% DMSO at the different pH levels.
Peak area 2 = peak area of the compound in 100% DMSO.

Series [7] deals with plasma protein. Nature of the series: Plasma protein binding (rapid equilibrium dialysis), rat. Format: in vitro ADME. The conditions noted are these: rat plasma, 10 µM, 37 °C, 4 h. On the procedure: as §1
Assay in series [8]: as above
The conditions noted are these: rat, plasma, pH 7.4, rat plasma. Format: in vitro ADME. As to the method:
as §1

Series [9] concerns plasma protein. Nature of the series: Plasma protein binding (rapid equilibrium dialysis), human. Format: in vitro ADME. Conditions: range over all species' plasma apart from dog (rat, monkey, mice, human). On the procedure:
as §1

Assay in series [10]: as above
Format: in vitro ADME. Conditions: pH 7.4; human plasma, 10 µM, 37 °C, 4 h; read-out: percentage bound to plasma protein (converted). As to the method:
as §1

In brackets after ≈: the same amount, converted by molar mass.

Usually half-life stands for the time needed for the level to fall by half in the phase considered. As usually defined, the solubility is the dissolved amount per volume that the medium holds. For the compound `C=C1[C@@H](O)[C@]2(O)OC[C@]34[C@H]2[C@@]2(C)[C@H](O)C(=O)C=C(C)[C@@H]2C[C@H]3OC(=O)[C@H](O)[C@@]14O` [Eurycomanone], the fraction unbound at 4 h, 10 µM in series [1] is 0.784; in series [6], 0.646; in [8] (10 µM, 37 °C, 4 h, read-out: percentage bound to plasma protein (converted)), 0.699; in series [8] (read-out: unbound fraction), 0.7; in [10], 0.611. Also, in [2], the Papp at 18 h, 25 µM worked out at 0.78 ×10⁻⁶ cm/s. Besides, the plasma stability entry is listed as “slightly lower” in the series “Plasma stability, mice”; “slightly lower” in “Plasma stability, monkey”; “highly stable” in the series “Plasma stability, human”. Further, in series [3], the “Half-life (t1/2)” value is greater than 1.5 h. In series [3], the half-life is greater than 1.5 h. For the same compound, the hepatocyte CLint in series [3] (read-out: Intrinsic clearance (Clint)) came out at 0.67 µL/min/1e6 cells. In [4], the tumour suppression entry is recorded as “tumour suppression ability was demonstrated”. Further, in [5], the logD at 16 h is -0.35. Moreover, the solubility at 16 h in the series “Aqueous solubility” (pH 5.4, 16 h) worked out at 206 µM (≈ 83.9 µg/mL); in the series “Aqueous solubility” (pH 7.4, 16 h), 205 µM (≈ 83.9 µg/mL). Further, the “percentage bound to plasma protein” value in the series on plasma protein [7] was determined as 30%. In the series with plasma protein [9], the “fraction of unbound eurycomanone” value is given as 61.1–78.4%.
